Details of data set [1]: species or system mice. The note with it: NOD (non-obese diabetic), mouse, in vivo, sc. How it is done: Non-obese diabetic (NOD) mice were intraperitoneal (IP) injected with normal fibroblasts (non-IDO-expressing, 2×10^7 cells per mouse) at the onset of hyperglycemia. Following IP fibroblast injection, the mice were given daily subcutaneous DL-kynurenine injections (20 μg/mouse). The blood glucose levels were monitored twice a week. For the controls, mice were either given only the IP fibroblast injection, or only the daily subcutaneous kynurenine injections as set out above, or were give no treatment at all.
Furthermore, in mouse 1 and mouse 2 (shown in FIG. 1) the subcutaneous kynurenine injections were stopped at 119 and 77 days post IP fibroblast injection, respectively, without a subsequent increase in blood glucose above 10 mM. Kyn injections were done daily because it was cleared from the blood within 8-10 hours. Glucose levels were monitored for up to 120 days, but control groups were sacrificed at earlier time points due to a high level of glucose and prevent the mice from suffering.

Data set [2] concerns C3H/HeJ mice induced to develop alopecia areata (AA). Description: Prevention of alopecia areata in C3H/HeJ mice by fibroblast + kynurenine treatment. In kind it is in vivo. The method, then: Prevention of alopecia areata by combination fibroblast+kynurenine treatment: C3H/HeJ mice were induce to develop alopecia areata (AA) by intradermal injection of lymph node cells from AA affected mice. These mice (5 per group) then received either no treatment, a single-dose injection of 2×10^6 unmodified primary dermal fibroblasts to peritoneal cavity, oral kynurenine (added to drinking water, 100 μg/mL), or a combination therapy consisting of a) single-dose injection of 2×10^6 unmodified primary dermal fibroblasts to peritoneal cavity and b) oral kynurenine (added to drinking water, 100 μg/mL).

The mark [3] stands for this setting: after 120 days, of Total mice per group.

As to `Nc1ccccc1C(=O)CC(N)C(=O)O` (racemic) [Kyn, DL-kynurenine], the “cleared from the blood within” value in data set [1] fell in the range of 8 to 10 h.
With `Nc1ccccc1C(=O)CC(N)C(=O)O` (centres unmarked) [FS1 alone, kynurenine], the “hair loss pattern after 120 days” value in data set [2] (FIG. 4A) is recorded as “some hair growth”. Also, in data set [2] (setting [3]), the “AA (number of mice with alopecia areata)” value was 4 and the “Normal (number of mice)” value stood at 1. The “Prevention (%)” value in data set [2] (prevention of AA) amounted to 20%.

These data come from US12551459B2, “Combination of kynurenine and antigen presenting cells (APC) as therapeutics and methods for their use in immune modulation” (THE UNIVERSITY OF BRITISH COLUMBIA, priority 2014, dated 2026).
